Experimental data as given in the NIST ThermoML archive (doi:10.1016/j.jct.2013.05.051).

Conditions: Liquid, Vibrating tube method

CCCCCCCO [heptan-1-ol]
mass density [kg/m3]
Conditions | 298.15 K | 313.15 K | 333.15 K | 353.15 K | 373.15 K | 393.15 K
100 kPa | 818.7 | 808 | 793.3 | 778.1 | 761.9 | 744.9
1000 kPa | 819.3 | 808.6 | 794 | 778.8 | 762.8 | 745.8
5000 kPa | 821.9 | 811.4 | 797.1 | 782.3 | 766.6 | 750.2
10000 kPa | 824.9 | 814.7 | 800.7 | 786.3 | 771.1 | 755.3
15000 kPa | 828 | 817.9 | 804.3 | 790.2 | 775.5 | 760.1
20000 kPa | 830.8 | 821 | 807.7 | 793.9 | 779.5 | 764.6
25000 kPa | 833.5 | 823.8 | 810.8 | 797.3 | 783.4 | 768.8
30000 kPa | 836.3 | 826.8 | 813.9 | 800.7 | 787.1 | 772.9
35000 kPa | 838.8 | 829.5 | 816.9 | 804 | 790.6 | 776.8
40000 kPa | 841.3 | 832.1 | 819.8 | 807.1 | 794 | 780.4
45000 kPa | 843.8 | 834.7 | 822.4 | 810 | 797.2 | 783.9
50000 kPa | 846.2 | 837.2 | 825.2 | 813 | 800.3 | 787.3
55000 kPa | 848.5 | 839.7 | 827.8 | 815.8 | 803.4 | 790.7
60000 kPa | 850.8 | 842.1 | 830.3 | 818.6 | 806.3 | 793.8
65000 kPa | 853 | 844.4 | 832.9 | 821.2 | 809.2 | 796.8
70000 kPa | 855.2 | 846.7 | 835.3 | 823.8 | 811.9 | 799.8
80000 kPa | 859.4 | 851.1 | 839.9 | 828.7 | 817.2 | 805.5
90000 kPa | 863.5 | 855.3 | 844.5 | 833.5 | 822.3 | 810.9
100000 kPa | 867.3 | 859.3 | 848.7 | 837.9 | 827 | 815.9
110000 kPa | 871.1 | 863.2 | 852.8 | 842.3 | 831.6 | 820.8
120000 kPa | 874.6 | 867 | 856.8 | 846.4 | 835.9 | 825.3
130000 kPa | 878.1 | 870.6 | 860.5 | 850.3 | 840.2 | 829.8
140000 kPa | 881.5 | 874.2 | 864.3 | 854.3 | 844.1 | 834

CCCCCCC [heptane]
mass density [kg/m3]
Conditions | 298.15 K | 313.15 K | 333.15 K | 353.15 K | 373.15 K | 393.15 K
100 kPa | 679.5 | 666.6 | 648.9 | 631.2 | – | –
1000 kPa | 680.4 | 667.6 | 650 | 632.1 | 613.3 | 593.5
5000 kPa | 684.2 | 671.8 | 655 | 637.8 | 620.1 | 601.7
10000 kPa | 688.6 | 676.7 | 660.6 | 644.3 | 627.7 | 610.6
15000 kPa | 692.8 | 681.3 | 665.8 | 650.3 | 634.5 | 618.4
20000 kPa | 696.7 | 685.6 | 670.6 | 655.7 | 640.7 | 625.4
25000 kPa | 700.4 | 689.5 | 675.1 | 660.8 | 646.3 | 631.7
30000 kPa | 704 | 693.5 | 679.4 | 665.5 | 651.6 | 637.5
35000 kPa | 707.4 | 697.1 | 683.4 | 670 | 656.5 | 643
40000 kPa | 710.7 | 700.5 | 687.3 | 674.1 | 661.1 | 648
45000 kPa | 713.8 | 703.9 | 690.9 | 678.1 | 665.5 | 652.8
50000 kPa | 716.8 | 707.2 | 694.4 | 682 | 669.6 | 657.2
55000 kPa | 719.7 | 710.3 | 697.7 | 685.5 | 673.5 | 661.5
60000 kPa | 722.5 | 713.3 | 701 | 689.1 | 677.3 | 665.5
65000 kPa | 725.2 | 716.1 | 704.1 | 692.4 | 680.8 | 669.3
70000 kPa | 727.9 | 718.9 | 707.1 | 695.7 | 684.3 | 673.1
80000 kPa | 732.9 | 724.2 | 712.8 | 701.7 | 690.8 | 680.1
90000 kPa | 737.7 | 729.3 | 718.2 | 707.5 | 696.9 | 686.5
100000 kPa | 742.3 | 734 | 723.2 | 712.8 | 702.6 | 692.5
110000 kPa | 746.6 | 738.6 | 728.1 | 717.9 | 708 | 698.2
120000 kPa | 750.7 | 742.8 | 732.6 | 722.7 | 713 | 703.4
130000 kPa | 754.6 | 747 | 737 | 727.3 | 717.9 | 708.5
140000 kPa | 758.4 | 751.1 | 741.1 | 731.6 | 722.3 | 713.4
